Source: US10508077B2 (FORMA Therapeutics, Inc., priority 2015, dated 2019)

Biological target: T1, Full length human recombinant HDAC8 protein (Homo sapiens, UniProt Q9BY41)
T1 construct: Full length human recombinant HDAC8 protein was expressed in baculoviral system; made in house
T1 sequence (Q9BY41 1-377): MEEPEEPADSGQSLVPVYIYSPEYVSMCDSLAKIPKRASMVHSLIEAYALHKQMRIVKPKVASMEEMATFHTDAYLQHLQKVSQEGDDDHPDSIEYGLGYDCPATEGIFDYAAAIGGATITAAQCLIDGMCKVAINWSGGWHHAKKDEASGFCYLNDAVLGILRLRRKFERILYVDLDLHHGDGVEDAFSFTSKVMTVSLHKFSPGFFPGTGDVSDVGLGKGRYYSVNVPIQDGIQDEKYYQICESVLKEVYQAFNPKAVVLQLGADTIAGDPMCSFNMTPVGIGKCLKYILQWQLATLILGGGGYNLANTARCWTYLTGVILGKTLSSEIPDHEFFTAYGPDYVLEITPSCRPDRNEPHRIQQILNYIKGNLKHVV
Test: In vitro histone deacetylase assay: enzymatic HDAC8 assay, electrophoretic mobility shift
Assay type: biochemical
Details: substrate RHKK(Ac)-NH2, 1 nM enzyme, compounds listed under IC50 range headings
Protocol: The enzymatic HDAC8 assay was performed using electrophoretic mobility shift assay. Full length human recombinant HDAC8 protein was expressed in baculoviral system and purified by affinity chromatography. The enzymatic reactions were assembled in 384 well plates in a total volume of 25 μL in a reaction buffer composing: 100 mM HEPES, pH7.5, 25 mM KC, 0.1% bovine serum albumin, 0.01% Triton X-100, 1% DMSO (from compounds) 2 μM of the fluorescently labeled peptide substrate and enzyme. The enzyme was added at a final concentration of 1 nM. The peptide substrate RHKK(Ac)-NH2 was used. The compounds were tested at 12 concentrations spaced by 3× dilution intervals. Negative control samples (0%-inhibition in the absence of inhibitor) and positive control samples (100%-inhibition) were assembled in replicates of four in each assay plate. The reactions were incubated at 25° C. and quenched by the addition of 45 μL of termination buffer (100 mM HEPES, pH 7.5, 0.01% Triton X-100, 0.05% SDS).
The terminated assay plates were analyzed on LabChip® 3000 microfluidic electrophoresis instrument (Perkin Elmer/Caliper Life Sciences). The fluorescence intensity of the electrophoretically separated de-acetylated product and substrate peptide was measured. Activity in each sample was determined as the product to sum ratio (PSR): P/(S+P), where P is the peak height of the product peptide and S is the peak height of the substrate peptide. Percent inhibition (Pinh) is determined using the following equation: Pinh=(PSR0%−PSRinh)/(PSR0%−PSR100%)*100, where PSRinh is the product sum ratio in the presence of inhibitor, PSR0% is the average product sum ration in the absence of inhibitor and PSR 100% is the average product sum ratio in 100%-inhibition control samples. The IC50 values of inhibitors were determined by fitting the %-inhibition curves with 4 parameter dose-response model using XLfit 4 software. Ranges of IC50 values for compounds of the invention are disclosed in Table 26.

SMILES | IC50 [nM]
Cn1c(CNc2ccccc2/C=C/C(=O)NO)nc(Cl)c1Cl [Example I-121, (E)-3-(2-(((4,5-dichloro-1-methyl-1H-imidazol-2-yl)methyl)amino)phenyl)-N-hyroxyacrylamide] | < 1000
O=C(/C=C/c1ccccc1NC(=O)c1ccccc1)NO [Example I-506, (E)-N-(2-(3-(hydroxyamino)-3-oxoprop-1-enyl)phenyl)benzamide 2,2,2-trifluoroacetate] | < 1000
Cc1nc(C(C)(C)C)sc1C(=O)Nc1ccccc1/C=C/C(=O)NO [Example I-283, (E)-2-(tert-butyl)-N-(2-(3-(hydroxyamino)-3-oxoprop-1-en-1-yl)phenyl)-4-methylthiazole-5-carboxamide] | < 1000
Cc1oc(-c2ccccc2)cc1C(=O)Nc1ccccc1/C=C/C(=O)NO [Example I-271, (E)-N-(2-(3-(hydroxyamino)-3-oxoprop-1-en-1-yl)phenyl)-2-methyl-5-phenylfuran-3-carboxamide] | < 1000
COCCn1c(CNc2ccccc2/C=C/C(=O)NO)nc2ccccc21 [Example I-2, (E)-N-hydroxy-3-(2-(((1-(2-methoxyethyl)-1H-benzo[d]imidazol-2-yl)methyl)amino)phenyl)acrylamide] | 1000 to 10000
N#Cc1ccc2nc(CNc3ccccc3/C=C/C(=O)NO)[nH]c2c1 [Example I-51] | < 1000
O=C(/C=C/c1ccccc1NCc1cc2cccnc2[nH]1)NO [Example I-102, (E)-3-(2-(((1H-pyrrolo[2,3-b]pyridin-2-yl)methyl)amino)phenyl)-N-hydroxyacrylamide] | < 1000
O=C(/C=C/c1ccccc1NC(=O)c1ccccc1CCc1ccccc1)NO [Example I-267, (E)-N-(2-(3-(hydroxyamino)-3-oxoprop-1-en-1-yl)phenyl)-2-phenethylbenzamide] | < 1000
CN(Cc1cccc(C(F)(F)F)c1)c1ccccc1/C=C/C(=O)NO [Example I-119, (E)-N-hydroxy-3-(2-(methyl(3-(trifluoromethyl)benzyl)amino)phenyl)acrylamide] | < 1000
COCCn1c(Nc2ccccc2/C=C/C(=O)NO)nc2ccccc21 [Example I-3, (E)-N-hydroxy-3-(2-((1-(2-methoxyethyl)-1H-benzo[d]imidazol-2-yl)amino)phenyl)acrylamide] | 1000 to 10000
O=C(/C=C/c1ccccc1NC(=O)c1nccn1-c1ccccc1C(F)(F)F)NO [Example I-38, (E)-N-(2-(3-(hydroxyamino)-3-oxoprop-1-en-1-yl)phenyl)-1-(2-(trifluoromethyl)phenyl)-1H-imidazole-2-carboxamide] | 1000 to 10000
NC(=O)CCc1cccc(CNc2ccccc2/C=C/C(=O)NO)c1 [Example I-53, (E)-3-(2-((3-(3-amino-3-oxopropyl)benzyl)amino)phenyl)-N-hydroxyacrylamide] | < 1000
O=C(/C=C/c1ccccc1NC(=O)c1ccc(Cn2nnc3ccccc32)cc1)NO [Example I-287, (E)-4-((1H-benzo[d][1,2,3]triazol-1-yl)methyl)-N-(2-(3-(hydroxyamino)-3-oxoprop-1-en-1-yl)phenyl)benzamide] | < 1000
O=C(/C=C/c1ccccc1C(=O)Nc1cccc(C(F)(F)F)c1)NO [II-36, (E)-2-(3-(hydroxyamino)-3-oxoprop-1-en-1-yl)-N-(3-(trifluoromethyl)phenyl)benzamide] | < 1000
Cc1cc(C(=O)Nc2ccccc2/C=C/C(=O)NO)n(C)n1 [Example I-80, (E)-N-(2-(3-(hydroxyamino)-3-oxoprop-1-en-1-yl)phenyl)-1,3-dimethyl-1H-pyrazole-5-carboxamide] | < 1000
O=C(/C=C/c1cccnc1CNc1ccc(-c2ccccc2)c(C(F)(F)F)c1)NO [Example I-217, (E)-N-hydroxy-3-(2-(((2-(trifluoromethyl)-[1,1′-biphenyl]-4-yl)amino)methyl)pyridin-3-yl)acrylamide] | < 1000

The remaining lines, values ahead:

IC50 [nM] | SMILES
< 1000 | O=C(/C=C/c1ccccc1N1CC2(CC(NC(=O)OCc3ccccc3)CS2(=O)=O)C1)NO (stereo not drawn) [Example I-114, benzyl (E)-(2-(2-(3-(hydroxyamino)-3-oxoprop-1-en-1-yl)phenyl)-5,5-dioxido-5-thia-2-azaspiro[3,4]octan-7-yl)carbamate]
< 1000 | O=C(/C=C/c1ccccc1N1CCN(C(=O)c2ccc(OC(F)F)cc2)CC1)NO [Example I-212, (E)-3-(2-(4-(4-(difluoromethoxy)benzoyl)piperazin-1-yl)phenyl)-N-hydroxyacrylamide]
< 1000 | O=C(/C=C/c1ccccc1N1CCC(NC(=O)c2cnn3c2OCCC3)CC1)NO [Example I-145, (E)-N-(1-(2-(3-(hydroxyamino)-3-oxoprop-1-en-1-yl)phenyl)piperidin-4-yl)-6,7-dihydro-5H-pyrazolo[5,1-b][1,3]oxazine-3-carboxamide]
1000 to 10000 | COc1ccc(CC(=O)NC2CCN(c3ccccc3/C=C/C(=O)NO)CC2)cc1 [Example I-9, (E)-N-hydroxy-3-(2-(4-(2-(4-methoxyphenyl)acetami-do)piperidin-1-yl)phenyl)acrylamide]
< 1000 | CC(C)(C)OC(=O)N1CCC2(CCN(c3ccccc3/C=C/C(=O)NO)C2)C1 (stereo not drawn) [Example I-112, tert-butyl (E)-7-(2-(3-(hydroxyamino)-3-oxoprop-1-en-1-yl)phenyl)-2,7-dizazspiro[4.4]nonane-2-carboxylate]
< 1000 | NC1CC2(CN(c3ccccc3/C=C/C(=O)NO)C2)S(=O)(=O)C1 (stereo not drawn) [Example I-117, (E)-3-(2-(7-amino-5,5-dioxido-5-thia-2-azaspiro[3.4]octan-2-yl)phenyl)-N-hydroxyacrylamide 2,2,2-trifluoroacetate]
< 1000 | O=C(/C=C/c1ccccc1N1CCN(Cc2cn3ccccc3n2)CC1)NO [Example I-188, (E)-N-hydroxy-3-(2-(4-(imidazo[1,2-a]pyridin-2-ylmethyl)piperazin-1-yl)phenyl)acrylamide]
< 1000 | O=C(/C=C/c1ccccc1N1CCC(NS(=O)(=O)Cc2ccc(Cl)cc2F)CC1)NO [Example I-239, (E)-3-(2-(4-(((4-chloro-2-fluorophenyl)methyl)sul-fonamido)piperidin-1-yl)phenyl)-N-hydroxyacrylamide]
1000 to 10000 | NC1CCN(c2ccccc2/C=C/C(=O)NO)CC1 [Example I-8, (E)-3-(2-(4-aminopiperidin-1-yl)phenyl)-N-hydroxyacrylamide 2,2,2-trifluoroacetate]
1000 to 10000 | COCC1(C(=O)N2CCN(c3ccccc3/C=C/C(=O)NO)CC2)CCC1 [Example I-21, (E)-N-hydroxy-3-(2-(4-(1-(methoxymethyl)cyclobu-tane-1-carbonyl)piperazin-1-yl)phenyl)acrylamide]
< 1000 | O=C(/C=C/c1ccccc1N1CCC(NC(=O)C2CCCCC2)CC1)NO [Example I-126, (E)-N-(1-(2-(3-(hydroxyamino)-3-oxoprop-1-en-1-yl)phenyl)piperidin-4-yl)cyclohexanecarboxamide]
< 1000 | O=C(/C=C/c1ccccc1N1CCC(NC(=O)c2cc3ccccc3[nH]2)CC1)NO [Example I-155]
< 1000 | CS(=O)(=O)N1CCCC(C(=O)NC2CCN(c3ccccc3/C=C/C(=O)NO)CC2)C1 (stereo not drawn) [Example I-127]
1000 to 10000 | Cc1c(S(=O)(=O)N2CCN(c3ccccc3/C=C/C(=O)NO)CC2)sc2ccc(Cl)cc12 [Example I-33, (E)-3-(2-(4-((5-chloro-3-methylbenzo[b]thiophen-2-yl)sulfonyl)piperazin-1-yl)phenyl)-N-hydroxyacrylamide]
< 1000 | CC(C(=O)Nc1ccccc1/C=C/C(=O)NO)N1CCS(=O)(=O)CC1 (stereo not drawn) [Example I-63, (E)-3-(2-(2-(1,1-dioxidothiomorpholino)propanamide)phenyl)-N-hydroxyacrylamide]
< 1000 | CC(=O)N1CCN(c2ccccc2/C=C/C(=O)NO)CC1 [Example I-193, (E)-3-(2-(4-actylpiperazin-1-yl)phenyl)-N-hydroxyacrylamide]
< 1000 | Cn1ccnc1S(=O)(=O)NC1CCN(c2ccccc2C=CC(=O)NO)CC1 [Example I-230, (E)-N-hydroxy-3-(2-(4-((1-methyl-1H-imidazole)-2-sulfonamido)-piperidin-1-yl)phenyl)acrylamide]
